“Also recorded” adds a separate entry of the source.
What was measured:
[1] = system: C57BL/6J mice; experiment: Acute tunicamycin-induced NAFLD/NASH model: histological liver damage score; assay type: in vivo, mouse; details: 60 mg/kg/d in drinking water, 3 mice with and 3 without NAM, 48 h after tunicamycin 2 μg/g i.p., FIG. 4
Protocol: In order to extend the findings of von Schönfels et al. 2014 (Liver Int. doi: 10.1111/liv.12476) with NA in a chronic model of NAFLD, the effect of NAM was investigted in an acute murine model of NASH (Lee et al. 2012, Toxicol. Lett. 211:29). C57BL/6J mice (n=6; age: 12-13 weeks) were injected intraperitoneally with tunicamycin (TM; 2 μg/g body weight). After 48 h, the mice were sacrificed and liver tissue was collected for histological analysis of signs of NAFLD/NASH as described previously (Lee et al. 2012, Toxicol. Lett. 211:29). NAM was administered to three of the six mice in the drinking water from 2 days before the TM challenge until the end of the experiment. NAM was administered at 0.4 g/l, corresponding to approximately 60 mg/kg/d (assumptions from general averages: body weight of a mouse: 20 g; water intake: 3 mL/mouse/d; 3 mL with a concentration of 0.4 g/L contained 1.2 mg NAM, resulting in a dose of approximately 60 mg/kg/d).
Paraffin-embedded liver tissue sections (3 μm) from mice after TM challenge were subjected to hematoxylin/eosin staining and scored in a blinded manner. Hepatic steatosis, hepatocyte ballooning and inflammation were determined in a scoring system modified from Brunt 2001 (Semin. Liver Dis. 21:3). The stage scores were based on liver fibrosis. The 0-3 grading includes: 0, none; 1, mild; 2, moderate; and 3, severe.

[2] = cited from earlier work

SMILES | tunicamycin-induced NAFLD/NASH liver damage score [1] | recommended maximum nutritional doses ([2]; adults, SCF/CS/NUT/UPPLEV/39) | doses above which side effects including flush, tachycardia, blood pressure dysregulation and diarrhea have to be anticipated ([2]; Carlson 2005, German Federal Institute for Risk Assessment) [mg/day] | tolerable upper intake level without anticipated side effects ([2]; adults, European Scientific Committee on Food) [mg/day]
NC(=O)c1cccnc1 [NAM, nicotinamide] | small, but significant reduction; also recorded: moderate, but significant protection | up to 900 mg/d | – | –
O=C(O)c1cccnc1 [nicotinic acid] | – | – | 100 to 300 | 10
